Measured values as given in PubChem BioAssay (NCI).
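Five compound concentrations were applied to cells in 96-well plates for 48 hours; endpoints were derived by simple linear interpolation of the resulting dose-response curve. Definition used: TGI = concentration required for complete inhibition of growth.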

What was measured:
Assay in all cases: growth of human tumour cells (NCI), 48 h
[1] = system: UO-31 renal
[2] = system: A498 renal
[3] = system: MDA-MB-435
[4] = system: T-47D breast
[5] = system: K-562 leukemia
[6] = system: HCT-15 colon
[7] = system: UACC-257 melanoma
[8] = system: M14 melanoma
[9] = system: NCI-H23 lung
[10] = system: HT29 colon
[11] = system: SF-295 CNS
[12] = system: RPMI-8226 leukemia
[13] = system: HOP-62 NSCLC
[14] = system: CAKI-1 renal
[15] = system: SK-MEL-5 melanoma
[16] = system: MDA-MB-231 breast
[17] = system: MCF7 breast
[18] = system: MDA-N
[19] = system: SK-OV-3 ovarian
[20] = system: KM20L2 colon

Row | Structure (SMILES) | TGI [1] [µM] | TGI [2] [µM] | TGI [3] [µM] | TGI [4] [µM] | TGI [5] [µM] | TGI [6] [µM] | TGI [7] [µM] | TGI [8] [µM] | TGI [9] [µM] | TGI [10] [µM] | TGI [11] [µM] | TGI [12] [µM] | TGI [13] [µM] | TGI [14] [µM] | TGI [15] [µM] | TGI [16] [µM] | TGI [17] [µM] | TGI [18] [µM] | TGI [19] [µM] | TGI [20] [µM]
1 | CCCCCCCC/C=C\CCCCCCCCNc1ccn(C2OC(COP(=O)(O)OC3CC(n4cc(F)c(=O)[nH]c4=O)OC3CO)C(O)C2O)c(=O)n1 (stereo not drawn) | > 100 | > 53.2 | > 100 | > 100 | > 100 | > 100 | > 100 | > 73.5 | > 30.3 | > 61.8 | > 100 | > 100 | > 100 | > 100 | > 100 | > 100 | > 100 | > 100 | > 100 | 
2 | COC1Cc2c(C)c(OC(C)=O)c3cccnc3c2O1 (stereo not drawn) | 27.3 | > 100 | 32.6 | 62.3 | 86 | 22.1 | 29.8 | 27.7 | 36.3 | > 100 | 93.3 | > 100 | 90.9 | > 100 | 29.2 | > 100 | 39.7 | 46.3 | > 100 | 
3 | CS(=O)(=O)c1nc(N)nc2nc[nH]c12 | > 100 | > 100 |  |  | > 100 | > 100 | > 100 | > 100 | > 100 | > 100 | > 100 | > 100 | > 100 | > 100 | > 100 |  |  |  | > 100 | > 100
4 | C=CCNC1=C2C[C@@H](C)C[C@@H](OC)[C@H](OC(=O)CN(C)C)[C@H](C)/C=C(\C)[C@@H](OC(N)=O)[C@H](OC)/C=C\C=C(/C)C(=O)NC(=CC1=O)C2=O | 24.1 | 19.4 | 13.7 | > 42.2 | > 42.1 | 20.4 | 17.2 | 18.9 | 19.8 | 12.7 | 13.5 | > 48.2 | 17.6 | 31.9 | 14.6 | 10.5 | 14.3 | 13.3 | 20 | 
5 | COC(=O)c1cc(C#N)[nH]c1-c1ccsc1 | > 100 | > 100 | > 100 | > 100 | > 100 | > 100 | > 100 | > 100 | > 100 | > 100 | > 100 | > 100 | > 100 | > 100 | > 100 | > 100 | > 100 | > 100 | > 100 | 
6 | NCC(=O)C(O)C(O)C(O)CO (stereo not drawn) | > 100 | > 100 | > 100 | > 100 | > 100 | > 100 | > 100 | > 100 | > 100 | > 100 | > 100 | > 100 | > 100 | > 100 | > 100 | > 100 | > 100 | > 100 | > 100 | 
7 | CC1(C)C(O)c2ccccc2OC1N1CCN(C2Oc3ccccc3C(O)C2(C)C)CC1 (stereo not drawn) | > 100 | > 100 | > 100 | > 100 | > 100 | > 100 | > 100 | > 100 | > 100 | > 100 | > 100 | > 100 | > 100 | > 100 | > 100 | > 100 | > 100 | > 100 | > 100 | 
8 | N#CN=Nc1cc(Cl)c(N=NC#N)cc1Cl |  | > 100 |  |  | > 100 | > 100 | > 100 | > 100 | > 100 | > 100 | > 100 |  | > 100 |  | > 100 |  |  |  | > 100 | > 100
9 | c1ccc(COCC23CCN(Cc4ccccc4)C(CC(OCc4ccccc4)C2)S3)cc1 (stereo not drawn) | > 100 | > 100 | > 100 | > 100 | > 100 | > 100 | > 100 | > 100 | 95.9 | > 100 | > 100 | > 100 | > 100 | > 100 | 32.3 | > 100 | 59.9 | > 100 | > 100 | 
10 | COC(C)(C)C(O)C(O)C[C@H](C)C1CC=C2C1(C)CCC1[C@@]3(C)CCC(OC(C)=O)C(C)(C)C3CC(OC3OC(COC(C)=O)C(O)C(O)C3O)[C@@]21C (stereo partly drawn) | 2.07 | 8.68 | > 10 | 8.73 | > 10 | > 10 | > 10 | > 10 | > 10 | 9.01 | > 10 | 5.14 | > 10 | > 10 | 4.38 | 9.73 | > 10 | > 10 | > 10 | 
11 | COc1cccc2c1C(=O)C(=O)c1c-2oc(=O)c2cc(C)cc(OC)c12 | > 75 | > 75 | 26.1 | > 75 | > 75 | 27.7 | 32.4 | > 75 | 58.4 | > 75 | > 75 | 62.4 | 32.4 | > 75 | 35.6 | 70.6 | 72.5 | 38.7 | > 75 | 
12 | CCCCOC(=O)CN1C(=O)c2ccccc2C1=O | > 100 |  |  |  |  | > 100 | > 100 | > 100 | > 100 | > 100 | > 100 |  | > 100 | > 100 | > 100 |  |  |  | > 100 | > 100
13 | CC1=CC(C)C(C)N(CCNC(=O)Nc2ccccc2)c2ccccc21 (stereo not drawn) | 98.6 | 66 | 75.1 | 61.2 | > 100 | 72 | 42.7 | 70 | 49.1 | 32.1 | 40.6 | 51.8 | 63.4 | 49.6 | 27.8 | 31.1 | 50.3 | > 100 | 65.1 | 
14 | NC(=S)SCCC(=O)O | > 100 | > 100 | > 100 | > 100 | > 100 | > 100 | > 100 | > 100 | > 100 | > 100 | > 100 | > 100 | > 100 | > 100 | > 100 | > 100 | > 100 | > 100 | > 100 | 
15 | O=C(NNC(=S)Nc1ccccc1)C12CC3CC(CC(C3)C1)C2 | > 100 | > 91.4 | > 100 | > 100 | > 81.6 | > 100 | > 100 | 67 | > 100 | > 100 | > 100 | > 100 | > 100 | > 100 | 42.6 | > 100 | > 100 | > 100 | > 100 | 
16 | CC1(C)S[C@@H]2[C@H](NC(=O)CCC[C@@H](N)C(=O)O)C(=O)N2[C@H]1C(=O)O | > 50 | > 50 |  |  | > 50 | > 50 | > 50 |  | > 50 | > 50 | > 50 | > 50 | > 50 | > 50 | > 21.6 |  | > 50 |  | 49.9 | > 28
17 | COC(=O)C1([C@@H]2C[C@@H](O)[C@]3(C)CC/C=C(\C)CCC[C@H](C)[C@H](O)[C@@H]2O3)CC1 | 60.3 | > 100 | > 100 | > 100 | > 100 | > 100 | > 100 | > 100 | > 100 | > 100 | > 100 | > 100 | > 100 | > 100 | > 100 | > 100 | > 100 | > 100 | > 100 | 
18 | O=C(O)CN1CCNCCN(CC(=O)O)CC1 | > 100 | > 68.7 | > 100 | > 100 | > 100 | > 100 | > 100 | > 100 | 20.7 | > 21.4 | > 100 | > 100 | > 100 | > 100 | 39.5 | > 100 | > 100 | > 100 | 98.4 | 
19 | CCOC(=O)C(NNS(=O)(=O)c1ccc(C)cc1)S(=O)(=O)C(F)(F)C(F)(F)C(F)(F)C(F)(F)F (stereo not drawn) | > 100 | > 100 | > 100 | > 100 | > 100 | > 100 | > 100 | > 100 | > 100 | > 100 | > 100 | > 100 | > 100 | > 100 | > 100 | > 100 | > 100 | > 100 | > 100 | 
20 | CCOC(=O)Cn1c(=O)c2nc(SC)sc2n(-c2ccc(C)cc2)c1=S | > 100 | > 100 | > 100 | > 100 | > 100 | > 100 | > 100 | > 100 | > 89.5 | > 100 | > 100 | > 100 | 42.5 | > 100 | > 100 | > 100 | > 100 | > 100 | > 100 | 
21 | CC(=O)N1NC(c2ccccc2)=CC(=O)/C1=C/C(=O)c1ccccc1 | > 100 | > 100 | 43.1 | > 100 | > 100 | > 100 | > 100 | > 100 | > 100 | > 100 | > 100 | > 100 | > 100 | > 100 | > 100 | > 100 | > 100 | > 100 | > 100 | 
22 | N#Cc1c(C#N)c(-c2cccc([N+](=O)[O-])c2)n(-c2ccccc2)c1N | > 100 | > 100 | > 100 | > 100 | > 100 | > 100 | > 100 | > 100 | > 100 | > 100 | > 100 | > 100 | > 100 | > 100 | > 100 | > 100 | > 100 | > 100 | > 100 | 
23 | Cc1cc(C)c2c(=O)cc(-c3ccc(Cl)cc3)[nH]c2n1 | > 93.9 | > 100 | 27.6 | > 100 | > 71.4 | > 100 | 83.1 | > 100 | > 100 | > 48.5 | > 73.3 | > 100 | > 100 | > 55.4 | > 74.2 | > 51.8 | > 100 | 25 | > 100 | 
24 | O=C(NO)c1cccc(OCc2ccc(Br)cc2)c1 | 14.4 | 32.2 | 38.7 | 23.9 | > 47.5 | > 100 | > 100 | 20.1 | 17.7 | 35.8 | > 62.1 | 24.3 | 52.8 | 15 | > 27.2 | 86.3 | > 65 | 27.5 | > 55.7 | 
25 | CCOC(=O)c1sc2nc(SC)nc(Nc3ccc4c(c3)OCCCO4)c2c1N | > 100 | > 100 | > 100 | > 100 | > 100 | > 100 | > 100 | > 100 | > 100 | > 100 | 53.9 | > 100 | 61.5 | > 100 | 18.7 | > 100 | > 100 | > 100 | > 100 | 
